Reference: article PMC9270327 (Communications Biology, 2022)
Several values for one entry are separate records, joined by “and”; a condition that tells them apart may be missing. Equal values may be shown once. Read-outs that look alike come from different tables or passages of the source.

What was measured:
[1] = molecular target: cellular TMPRSS2 activity, Caco-2 cells (Homo sapiens, UniProt O15393); settings: for cellular protease activity on Caco-2 cells, Mean (Fig. 4a): normalized, 0 nM = 100
Procedure: (§1) In total, 10,000 Caco-2 cells (ATCC) in 100 µL EMEM medium supplemented with 10% FBS, 100 U/mL penicillin, […] streptomycin, and 2 mM glutamine (all Invitrogen, Germany) were seeded per well in a 96-well plate and incubated at 37 °C for 4 days until full confluency of the cells. The cells were washed two times with PBS and EMEM medium without FBS was added. […] The fluorescence intensity was measured as described above. In all, 20,000 HEK293T cells (ATCC) were seeded in 100 µL DMEM supplemented with 10% FBS, 100 U/mL penicillin, […] streptomycin, and 2 mM glutamine. […] After 14 h, transfection mix was removed from the cells and 80 µL fresh medium without FBS and 10 µL inhibitors were added (final concentration 50 µM). […] Fluorescence intensity was measured after 2 h at 37 °C as described above.

[2] = molecular target: T1, TMPRSS2 expressed in HEK293T cells (Homo sapiens, UniProt O15393); assay: Inhibition of cellular TMPRSS2 activity on HEK293T cells transiently expressing TMPRSS2; format: cell-based; settings: 2 h; for normalized fluorescence intensity, HEK293T TMPRSS2, Mean (Fig. 4b): corrected for mock-transfected cells
T1 construct: host or cells: HEK293T (ATCC)
Procedure: as §1, with “After 14 h, transfection mix was removed from the cells and 80 µL fresh medium without FBS and 10 µL inhibitors were added (final concentration 50 µM).” left out

[3] = test system: lentiviral pseudoparticles carrying SARS-CoV-2 Wuhan-Hu-1 spike, Caco-2 cells; format: cell-based
[4] = test system: lentiviral pseudoparticles carrying SARS-CoV-2 Alpha (B.1.1.7) spike, Caco-2 cells; format: cell-based; settings: for SARS-CoV-2 spike driven entry, Mean (0 nM = 100): Fig. 5b
[5] = test system: lentiviral pseudoparticles carrying SARS-CoV-2 Delta (B.1.617.2) spike, Caco-2 cells; format: cell-based; settings: for SARS-CoV-2 spike driven entry, Mean (0 nM = 100): Fig. 5d
[6] = test system: lentiviral pseudoparticles carrying SARS-CoV-2 Omicron BA.1 (B.1.1.529) spike, Caco-2 cells; format: cell-based
[7] = test system: SARS-CoV-2 Wuhan-Hu-1, Caco-2 cells; format: cell-based; settings: Fig. 6a, Wuhan-Hu-1

cellular TMPRSS2 activity, Caco-2 cells, sequence (O15393 whole entry): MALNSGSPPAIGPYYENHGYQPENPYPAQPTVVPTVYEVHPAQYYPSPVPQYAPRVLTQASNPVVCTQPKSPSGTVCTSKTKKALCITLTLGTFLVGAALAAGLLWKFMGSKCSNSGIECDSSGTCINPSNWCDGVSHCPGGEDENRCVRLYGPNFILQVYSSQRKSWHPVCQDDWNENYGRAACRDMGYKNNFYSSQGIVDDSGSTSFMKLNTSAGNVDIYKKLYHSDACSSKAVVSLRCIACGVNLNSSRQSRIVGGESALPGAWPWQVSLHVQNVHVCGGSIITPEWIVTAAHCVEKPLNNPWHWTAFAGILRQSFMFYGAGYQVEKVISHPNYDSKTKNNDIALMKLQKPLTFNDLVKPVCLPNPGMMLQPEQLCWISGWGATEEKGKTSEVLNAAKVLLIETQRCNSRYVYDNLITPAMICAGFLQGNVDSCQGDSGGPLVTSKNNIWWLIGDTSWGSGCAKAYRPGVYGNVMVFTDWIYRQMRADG
T1 sequence (O15393 whole entry): as above

For ace-Arg-Pro-Arg-kbt [Compound 2], the “cellular protease activity on Caco-2 cells, Mean (Fig. 4a)” value (from here on “cellular protease activity”) ([1]; 0.1 nM) was 109.802, the “cellular protease activity” value ([1]; 1 nM) was 82.1942 and the “cellular protease activity” value ([1]; 10 nM) was 70.6835. The “cellular protease activity” value ([1]; 100 nM) was 32.9137, the “cellular protease activity” value ([1]; 1000 nM) was -3.058 and the “cellular protease activity” value ([1]; 10000 nM) was 1.349. The “cellular protease activity” value ([1]; 100000 nM) was 2.158, the IC50 ([1]; read-out: IC50 Caco2, cell-mediated proteolysis of Boc-Gln-Ala-Arg-AMC, 30 min preincubation) was 32 nM and the “normalized fluorescence intensity, HEK293T TMPRSS2, Mean (Fig. 4b)” value (shortened to “normalized fluorescence intensity”) ([2]; 0.5 nM) was 60.175. The “normalized fluorescence intensity” value ([2]; 5 nM) was 47.265, the “normalized fluorescence intensity” value ([2]; 50 nM) was 34.28 and the “normalized fluorescence intensity” value ([2]; 500 nM) was 7.97. For the same substance, the “normalized fluorescence intensity” value ([2]; 5000 nM) was 0.76, the “normalized fluorescence intensity” value ([2]; 50000 nM) was -5.7 and the IC50 ([2]; corrected for mock-transfected HEK293T cells) was 3.5 nM. The “SARS-CoV-2 spike driven entry, Mean (0 nM = 100)” value (shortened to “SARS-CoV-2 spike driven entry”) [3] was 93.4665, the IC50 ([3]; Caco-2 cells, luciferase 2 days post transduction, read-out: IC50 pseudotyped lentivirus Wuhan-Hu-1) was 1620 nM and the “SARS-CoV-2 spike driven entry” value ([3]; Fig. 5a, compound 160 nM, […]) was 93.5815. The “SARS-CoV-2 spike driven entry” value ([3]; Fig. 5a, compound 800 nM, […]) was 73.183, the “SARS-CoV-2 spike driven entry” value ([3]; Fig. 5a, compound 4000 nM, […]) was 22.027 and the “SARS-CoV-2 spike driven entry” value ([3]; Fig. 5a, compound 20000 nM, […]) was 3.879. For the same substance, the “SARS-CoV-2 spike driven entry” value ([3]; Fig. 5a, compound 100000 nM, […]) was 2.5725, the IC50 ([4]; Caco-2 cells, luciferase 2 days post transduction, read-out: IC50 pseudotyped lentivirus Alpha) was 390 nM and the “SARS-CoV-2 spike driven entry” value ([4]; compound 3.2 nM) was 80.3695. For the same substance, the “SARS-CoV-2 spike driven entry” value ([4]; compound 16 nM) was 86.8245, the “SARS-CoV-2 spike driven entry” value ([4]; compound 80 nM) was 66.7955 and the “SARS-CoV-2 spike driven entry” value ([4]; compound 400 nM) was 63.0945. For the same substance, the “SARS-CoV-2 spike driven entry” value ([4]; compound 2000 nM) was 24.7885, the “SARS-CoV-2 spike driven entry” value ([4]; compound 10000 nM) was 4.5995 and the “SARS-CoV-2 spike driven entry” value ([4]; compound 50000 nM) was 0.953. The IC50 ([5]; Caco-2 cells, luciferase 2 days post transduction, read-out: IC50 pseudotyped lentivirus Delta) was 627 nM, the “SARS-CoV-2 spike driven entry” value ([5]; compound 3.2 nM) was 94.6384 and the “SARS-CoV-2 spike driven entry” value ([5]; compound 16 nM) was 93.9983. The “SARS-CoV-2 spike driven entry” value ([5]; compound 80 nM) was 82.6624, the “SARS-CoV-2 spike driven entry” value ([5]; compound 400 nM) was 60.9224 and the “SARS-CoV-2 spike driven entry” value ([5]; compound 2000 nM) was 29.6704. The “SARS-CoV-2 spike driven entry” value ([5]; compound 10000 nM) was 4.245, the “SARS-CoV-2 spike driven entry” value ([5]; compound 50000 nM) was 0.86 and the “SARS-CoV-2 spike driven entry” value [6] was 80.0549 and 94.4227 and 98.8201. For the same substance, the IC50 ([6]; Caco-2 cells, luciferase 2 days post transduction, read-out: IC50 pseudotyped lentivirus Omicron BA.1) was 431 nM, the “SARS-CoV-2 spike driven entry” value ([6]; Fig. 5e, compound 400 nM, […]) was 52.4269 and the “SARS-CoV-2 spike driven entry” value ([6]; Fig. 5e, compound 2000 nM, […]) was 20.742. For the same substance, the “SARS-CoV-2 spike driven entry” value ([6]; Fig. 5e, compound 10000 nM, […]) was 5.628, the “SARS-CoV-2 spike driven entry” value ([6]; Fig. 5e, compound 50000 nM, […]) was 3.26 and the “SARS-CoV-2 infection, Mean (0 nM = 100)” value ([7]; compound 32 nM) was 97.173. The “SARS-CoV-2 infection, Mean (0 nM = 100)” value ([7]; compound 160 nM) was 99.3408, the “SARS-CoV-2 infection, Mean (0 nM = 100)” value ([7]; compound 800 nM) was 95.9056 and the “SARS-CoV-2 infection, Mean (0 nM = 100)” value ([7]; compound 4000 nM) was 58.4381. The “SARS-CoV-2 infection, Mean (0 nM = 100)” value ([7]; compound 20000 nM) was 1.12 and the “SARS-CoV-2 infection, Mean (0 nM = 100)” value ([7]; compound 100000 nM) was -2.857.
